Measured values from patent US9763944B2 (Novartis AG, priority 2008, dated 2017).

Conditions: GIST patients, 400 or 600 mg/day oral
Procedure: METHODS: The IM plasma levels were analyzed in a subset of patients (n=73) for whom PK data on day 1 and at steady state (Day 29) was available (n=34 and 39 for 400 and 600 mg/day, respectively). The effect of patients demographics and blood chemistry parameters on IM PK was evaluated using a population PK approach. A relationship between IM plasma exposure and clinical outcome was explored by grouping patients into quartiles according to IM trough levels (Cmin). The clinical outcome parameters evaluated include overall objective responses (OOR=CR+PR+SD), time to progression (TTP), and KIT mutations.

inter-patient variability in IM exposure: large inter-patient variability
Structure (SMILES): Cc1ccc(NC(=O)c2ccc(CN3CCN(C)CC3)cc2)cc1Nc1nccc(-c2cccnc2)n1 [imatinib, N-{5-[4-(4-methyl-piperazino-methyl)-benzoylamido]-2-methylphenyl}-4-(3-pyridyl)-2-pyrimidine-amine]
